From patent US9687499B2, “Method using heat shock protein inhibitor for treating hepatitis and hepatoma” (National Tsing Hua University, priority 2014, dated 2017)

How the values were obtained:
[1] = tested on: LHBs-positive cells (SNAP cells 505) expressing HBV-LHBs; assay: Selective cytotoxicity in co-culture, LHBs-positive cells; assay type: cell-based; settings: 40 μM
Experimental: (§1) With elapse of time, use a microscope to observe the selective cytotoxicity of VER-155008 to the cells expressing HBV-LHBs (hepatitis B virus large S protein). The LHBs-positive cells (SNAP cells 505) are labeled by green fluorescence and co-cultured with unlabeled parental NeHepLxHT. The group of the mixed cells is processed with 40 μM VER-155008 and then periodically recorded at time points separated by a longer interval of time for 48 hours. The observed cellular quantities of the unlabeled cells (parental cells) and the green-labeled cells (LHBs-infected cells) are used to reveal typical cellular apoptosis.

hepatitis B virus [2] = assay: HBsAg in blood serum of AdHBV-infected mice; assay type: in vivo; settings: intravenous, 20 mg/ml, FIG. 4a
Experimental: Intravenous injection of […] and Pifithrin-μ can successfully reduce the hepatitis B surface antigen (HBsAg) in the blood serum of mice, wherein the mice are continuously infected by hepatitis B virus in an adenovirus genome transfer technology (AdHBV). Each group has three mice. The experiment design is as follows: inject AdHBV into mice continuously for 28 days; respectively inject a mock medication, 20 mg/ml […], and 20 mg/ml Pifithrin-μ into the mice intravenously; collect the samples of the blood serum and livers for serological and pathological analyses.

hepatitis B virus [3] = assay: HBsAg-positive liver cells in liver sections of mice; settings: month-long treatment, FIG. 5b
[4] = Liver function test (GPT) in mice; assay type: in vivo; settings: FIG. 4b
Excerpt: GPT (Glutamate Pyruvate Transaminase) is used to monitor the liver function of the mice.

parental NeHepLxHT = assay: Selective cytotoxicity in co-culture, parental cells; assay type: cell-based; settings: 40 μM, 24 hours, FIG. 3b
Experimental: as §1, with “[…].” for “With elapse of time, use a microscope to observe the selective cytotoxicity of VER-155008 to the cells expressing HBV-LHBs (hepatitis B virus large S protein).”, “apoptosis. […].” for “apoptosis.”

liver cell line WT = assay: Toxicity to liver cells, WT cell line
HSP90 = HSP90 (Homo sapiens, UniProt P08238); settings: selectivity over HSP90; cited from earlier work
Chain of HSP90 (P08238 whole entry, species assumed): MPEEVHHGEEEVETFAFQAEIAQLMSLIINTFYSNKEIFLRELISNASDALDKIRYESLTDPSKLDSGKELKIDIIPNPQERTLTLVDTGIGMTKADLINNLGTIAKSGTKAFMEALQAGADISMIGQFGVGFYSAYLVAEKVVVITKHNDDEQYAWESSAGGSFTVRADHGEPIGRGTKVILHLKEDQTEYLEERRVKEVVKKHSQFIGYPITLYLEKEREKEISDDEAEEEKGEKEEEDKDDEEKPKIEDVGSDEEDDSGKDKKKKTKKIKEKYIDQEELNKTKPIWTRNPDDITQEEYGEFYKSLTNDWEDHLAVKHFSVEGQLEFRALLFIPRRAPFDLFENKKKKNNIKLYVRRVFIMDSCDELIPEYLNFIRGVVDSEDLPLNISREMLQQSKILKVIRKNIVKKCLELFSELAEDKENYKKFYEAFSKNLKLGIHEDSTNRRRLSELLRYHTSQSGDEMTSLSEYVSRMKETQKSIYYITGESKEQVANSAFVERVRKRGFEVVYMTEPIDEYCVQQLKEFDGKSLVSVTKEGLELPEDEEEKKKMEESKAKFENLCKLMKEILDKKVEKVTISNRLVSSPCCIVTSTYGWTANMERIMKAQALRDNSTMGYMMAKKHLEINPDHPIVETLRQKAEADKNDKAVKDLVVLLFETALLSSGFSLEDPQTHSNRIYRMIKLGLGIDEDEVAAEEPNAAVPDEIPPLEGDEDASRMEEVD

liver cell line Pre-S2 = assay: Toxicity to liver cells, Pre-S2 cell line; assay type: cell-based
liver cell line SNAP = assay: Toxicity to liver cells, SNAP cell line

| SMILES | death of LHBs-positive cells ([1]; 24 hours, FIG. 3b) | death of LHBs-infected cells ([1]; 48 hours, FIG. 3c) | levels of HBsAg in the blood serums (hepatitis B virus [2]) | HBsAg-positive liver cells (hepatitis B virus [3]; low dosage (20 mg/Kg) and high dosage (40 mg/Kg)) | levels of GPT in the blood serums [4] | survival of parental cells (parental NeHepLxHT) | IC50 (liver cell line WT) | effect to HSP70 and GRP78 relative to effect to HSP90 (HSP90) | IC50 (liver cell line Pre-S2) | IC50 (liver cell line SNAP) | HBcAg-positive liver cells (hepatitis B virus [3]; high dosage (40 mg/Kg)) |
| --- | --- | --- | --- | --- | --- | --- | --- | --- | --- | --- | --- |
| N#Cc1ccc(COC[C@H]2O[C@@H](n3c(NCc4ccc(Cl)c(Cl)c4)nc4c(N)ncnc43)[C@H](O)[C@@H]2O)cc1 [VER-155008, 5′-O-[(4-Cyanophenyl)methyl]-8-[[(3,4-dichlorophenyl)methyl]amino]-adenosine] | many of the LHBs-positive cells are dead | almost all die | obviously reduced | different effects in decreasing the HBsAg-positive liver cells | do not vary obviously | still alive | 18 µM | over 100 times | 18.8 µM | 36.2 µM |  |
| NS(=O)(=O)C#Cc1ccccc1 [Pifithrin-μ, 2-Phenylethynesulfonamide] |  |  | obviously reduced |  | do not vary obviously |  | 12.2 µM |  | 11.8 µM | 17.5 µM | kill a portion of the HBcAg-positive liver cells |
